Entries after “also recorded” stand apart in the source; their conditions may differ.

Assay [1] deals with neutrophil adhesion to TNFα-activated endothelium. Kind of assay: Neutrophil adhesion assay on HUVEC monolayer. The class given is cell-based, human. The procedure: (§1) A, Chemotaxis assay using neutrophils pretreated for 20 min at room temperature with 30 μM PD98059 or DMSO. Chemotaxis was stimulated by the presence of 10 nM fMLP, or 1 nM IL-8 in the lower chamber; medium alone served as a control (nil). The data represent one of three experiments, each performed in triplicate. ANOVA looking for an effect of PD98059 compared to DMSO on chemotaxis gave p=0.359. B, Confluent HUVEC monolayers were stimulated with TNFα for 4 h, with PD98059 or DMSO added in the final 30 min. The extent of neutrophil adhesion to the endothelium was determined using a standard adhesion assay. The data is presented as the percentage of neutrophil remaining adherent relative to that added (% adhesion). The results represent one of three experiments, each performed in triplicate. (p=0.238, t-test comparing DMSO+TNF with PD+TNF).
Adhesion assays were performed as previously described (Gamble, J. R., Y. Khew-Goodall, and M. A. Vadas. 1993. J Immunol. 150:4494-4503) with the exception that neutrophils were used. […] After washing the cells were stained with Rose Bengal and total numbers of adherent neutrophils determined by densitometry. The number of adherent neutrophils was computed from a standard curve and expressed as a percentage of the neutrophils added. […]

The test system of assay [2] is neutrophil transmigration across a confluent monolayer of cultured human umbilical vein endothelial cells (HUVEC). The assay can be described thus: Neutrophil transmigration assay across HUVEC monolayer on Transwells. In kind it is cell-based. The procedure:
FIG. 1 is a graphical representation of inhibitors that act on MEK inhibit neutrophil transmigration across endothelium. A, Confluent HUVEC monolayers plated (5×10^4 cells/well) on Transwells were either unstimulated or activated with TNFα (4 ng/ml) for 4 hours. Thirty min prior to the assay some monolayers were treated with PD98059 (45 μM) or DMSO control. Neutrophils (5×10^5 cells/well) were added with either PD98059 or DMSO. Transmigration was assayed across TNFα-activated endothelium (TNF) and unstimulated endothelium with (fMLP) or without (Nil) a gradient of 10 nM fMLP. The assays were carried out in triplicate and 1 representative of 5 experiments shown. An ANOVA was performed looking for an effect of PD98059 compared to DMSO on transmigration: in this experiment p<0.0001 and in the overall series p<0.0001. B, Endothelial monolayers were treated as in A, but the concentration of PD98059 was varied as indicated. The data are presented as percentage of transmigration relative to that across unstimulated endothelium. One representative experiment of 7, each performed in triplicate, is shown. […] C, Endothelial cells on Transwells were left unstimulated or activated with TNFα as in A. Using the standard protocol, U0126 or its solvent, DMSO, were added to the monolayers 30 min prior to the experiment, and then added with the neutrophils. The results from one of two experiments, each performed in triplicate, is shown.
This was performed as previously described using Transwells (6.5 mm diameter, […] pore size, Costar, Cambridge, Mass.) on 24 well culture trays (Smith et al., 1991, supra). Briefly, 5×10^4 HUVEC (between passages 2 and 5) were seeded in the upper chamber of each Transwell pre-coated with fibronectin (50 μg/mL for 30 minutes) and the cells were grown at 37° C. in 5% CO2 supplemented air to form a confluent monolayer. Neutrophils were added at 5×10^5 cells/well to the top chamber and where indicated chemoattractant was added to the lower chamber. The neutrophils were incubated at 37° C. for 1 h after which the number that had transmigrated into the lower chamber were collected and counted. Transmigration is expressed as a percentage of neutrophils added.
Neutrophils were counted using one of two methods. Neutrophils retrieved from the lower compartment were either counted directly using a Coulter counter (Model ZF, Coulter, Herts, UK) or using an indirect colourimetric assay based on the conversion of a tetrazolium salt (MTT) to a formazan. Briefly, MTT (0.2 mg/ml, Sigma, St. Louis, […].) was added to the lower chamber and incubated for 4 hours at 37° C. The neutrophils were pelleted by centrifugation, the pellets resuspended in 200 μl acid isopropanol for an hour and the absorbance at 550 nm determined. A standard curve was constructed by serial dilution of the neutrophil preparation and the percentage of neutrophils transmigrating was calculated from this. The two methods used produced results of good fit (least squares fit regression analysis, >95% confidence) (data not shown).
To identify signalling pathways in the endothelium that are essential for neutrophil transmigration, a screen for their effects on transmigration was carried out using pharmacological inhibitors of various signalling pathways (data not shown). The studies were performed using an in vitro model of neutrophil transmigration across a confluent monolayer of cultured human umbilical vein endothelial cells (HUVEC). Transmigration induced by an exogeneously added chemoattractant gradient and across TNFα-activated endothelium were both examined. […] In general, transmigration across TNFα-activated endothelium was inhibited to a greater extent than transmigration across a gradient of fMLP, with 70-80% inhibition of transmigration across TNFα-activated endothelium compared to only 40-50% inhibition of transmigration across an fMLP gradient. The inhibitory effects of PD98059 were also confirmed using a second MEK inhibitor, U0126 (FIG. 1C).

In assay [3] the test system is neutrophil chemotaxis. The assay can be described thus: Neutrophil chemotaxis assay (Transwells, no HUVEC monolayer). In kind it is cell-based, human. To be noted: 30 μM PD98059 vs DMSO. The procedure:
as §1
Chemotaxis assays were performed using Transwells essentially as in the transmigration assay except that the HUVEC monolayer was omitted. In addition, instead of pre-coating the upper chamber with fibronectin, the lower chamber was pre-coated with gelatin to prevent adhesion of neutrophils. […] Neutrophils that had migrated through the filters after 1 hour incubation at 37° C. were counted. Counts are expressed as a percentage of the total number of cells added. […]

Assay [4] concerns endothelial ERK (HUVEC). Kind of assay: ERK activation assay (Western blot with phospho-ERK Ab). In kind it is cell-based, human. The following applies: for endothelial ERK activation by direct treatment of endothelial monolayer: HUVEC treated 15 min, no neutrophils, anti-phospho-ERK Western blot. The procedure: A, Endothelial cells treated with 0.4 ng/ml TNFα (TNF), 30 ng/ml interleukin-4 (IL-4), 20 ng/ml oncostatin-M (OsM), 100 ng/ml PMA, or medium alone (Nil) for 15 minutes were assayed for Erk activation. Western blots shown were carried out using an anti-phospho-Erk Ab to detect activated Erk. Equal amounts of protein were loaded onto each lane. B, HUVEC were activated with TNFα for 4 hours or left unstimulated. After washing, either medium containing IL-8 (−) or neutrophils pre-treated with 1 nM IL-8 (+) were added at a 10:1 ratio of neutrophils to HUVEC and Erk activation assayed after 15 min at 37° C. Western blots shown were carried out using antibodies to phospho-Erk (upper panel) or reprobed with an anti-Erk polyclonal antibody after membranes were stripped (lower panel).
A, Neutrophils, untreated or incubated with a β2 integrin functional blocking antibody, TS1/18 (50 μg/ml), for 20 min at room temperature were added to HUVEC in the presence of 1 nM fMLP for 15 min. HUVEC monolayers were then analysed for Erk activation by Western blotting with an anti-phospho-Erk Ab. B, Neutrophils, untreated or treated with the TS1/18 Ab as in A, were added to 96-well tissue culture dishes in the presence or absence of 1 nM fMLP and neutrophil adhesion was determined. The data is presented as the percentage of neutrophil remaining adherent relative to that added (% adhesion). By ANOVA comparing +/−TS1/18, p=0.0002, n=3.
Resting HUVEC monolayers incubated with medium (nil), neutrophils (N) or neutrophil conditioned medium (CM), were analysed for Erk activation by Western blotting with an anti-phospho-Erk Ab. A, Neutrophils were stimulated for 15 minutes with 1 nM fMLP and then divided into two aliquots. One aliquot was centrifuged and the top 2/3 taken, carefully avoiding the cellular pellet, and added as conditioned medium (CM). The other aliquot was resuspended and 2/3 taken and added as the equivalent amount of neutrophil preparation (N). B. Conditioned media from neutrophils treated with 1 or 100 nM fMLP (prepared as in A) were added to HUVEC either undiluted (neat) or after diluting 1 in 3 (1/3) in medium. […]
HUVEC (10^6 cells/well) were seeded in 6-well tissue culture dishes. […] Protein concentration was determined using the Bradford reagent (BioRad) and equal amounts of protein loaded onto a 7.5% SDS polyacrylamide gel. […] Total ERK present was determined by stripping the filter and re-blotting with an antibody against ERK 1/2.
We therefore investigated whether ERK activation in the endothelium may be occurring under the conditions of the transmigration assay and which parameter(s) present in the assay system were responsible for its activation. Initially, the role of the inducers, TNFα and fMLP, used in the transmigration assay were assessed. […]
In general terms: In western blotting, separated proteins are transferred to a membrane and probed.

In assay [5] the test system is endothelial ERK (HUVEC). The following applies: Xia et al. 1998; cited from earlier work.

As to `COc1cccc(-c2cc(=O)c3ccccc3o2)c1N` [PD98059], in assay [1] (HUVEC stimulated with TNFα 4 h, inhibitor in final 30 min), the “neutrophil adhesion to TNFα-activated endothelium in presence of inhibitor” value is given as “not significantly affected”. Also, the “effect on neutrophil transmigration across TNFα-activated endothelium” value in assay [2] (TNFα-activated HUVEC) was “inhibit in a dose-dependent manner”. Further, in assay [2] (TNFα-activated HUVEC, inhibitor added 30 min before and with neutrophils, 1 h), the “inhibition of transmigration across TNFα-activated endothelium” value is listed as 70-80%. Besides, the “effect on neutrophil transmigration induced by a chemoattractant (fMLP) gradient” value in assay [2] (unstimulated HUVEC) is “inhibit in a dose-dependent manner”. Also, the “inhibition of transmigration across an fMLP gradient” value in assay [2] (unstimulated HUVEC, fMLP gradient (10 nM), 1 h) was 40-50%. The IL-8-stimulated neutrophil chemotaxis result in assay [3] (1 nM IL-8 in lower chamber) is “not significantly affected”. For the same molecule, the fMLP-stimulated neutrophil chemotaxis entry in assay [3] (10 nM fMLP in lower chamber) is listed as “not significantly affected”.
For the molecule `N#CC(=C(/N)Sc1ccccc1N)/C(C#N)=C(\N)Sc1ccccc1N` [U0126], the “effect on neutrophil transmigration across TNFα-activated endothelium” value in assay [2] (TNFα-activated HUVEC) was “inhibited transmigration across TNFα-activated endothelium to a similar extent as PD 98059”. Further, the “effect on neutrophil transmigration induced by a chemoattractant (fMLP) gradient” value in assay [2] (unstimulated HUVEC) was “showed greater potency against fMLP-driven transmigration”.
As to `CSCC[C@H](NC=O)C(=O)N[C@@H](CC(C)C)C(=O)N[C@@H](Cc1ccccc1)C(=O)O` [fMLP, N-formyl-methionyl-leucinyl-phenylalanine], the “endothelial ERK activation by direct treatment of endothelial monolayer” value (“endothelial ERK activation” below) in assay [4] was “did not activate endothelial ERK; also recorded: had no effect on endothelial ERK activation”. The “induction of the ERK-activating factor in neutrophils” value in assay [4] (conditioned media of stimulated neutrophils added to HUVEC, phospho-ERK read-out) is recorded as “induced the ERK-activating factor”.
Turning to TNFα, in assay [5], the “fold activation of ERK (earlier observations)” value was 1.5-2.0 fold. The “endothelial ERK activation” value in assay [4] was “marginally activated ERK”. Further, the “neutrophil adhesion to endothelium after treatment of the endothelium” value in assay [1] (TNFα treatment of HUVEC, 4 h) is on record as “stimulated neutrophil adhesion”.

B1: IL-4: interleukin-4 (protein, UniProt P05112 25-153, looked up)
Interleukin-4: HKCDITLQEIIKTLNSLTEQKTLCTELTVTDIFAASKNTTEKETFCRAATVLRQFYSHHEKDTRCLGATAQQFHRHKQLIRFLKRLDRNLWGLAGLNSCPVKEANQSTLENFLERLKTIMREKYSKCSS
As for B1, the “endothelial ERK activation” value in assay [4] is “marginally activated ERK”.
